The test system of the assay is Aβ42 production. As to the kind of experiment: Quantification of Aβ peptide in culture of neurons from rat fetus brain (Aβ ELISA). Format: cell-based. To be noted: Rattus norvegicus, Neuron, 72 h, rat primary neuronal culture (embryonic day 18 Wistar rat cerebral cortex); cultured three days after addition of compound; Aβx-42 ELISA of the medium; read-out: Aβ42 production reducing effect IC50. The method, then:
Quantification of Aβ Peptide in Culture of Neurons from Rat Fetus Brain
(1) Rat Primary Neuronal Culture
Primary neuronal cultures were prepared from the cerebral cortex of embryonic day 18 Wistar rats (Charles River Japan, Yokohama, Japan). Specifically, the embryos were aseptically removed from pregnant rats under ether anesthesia. The brain was isolated from the embryo and immersed in an ice-cold L-15 medium (Invitrogen Corp. Cat #11415-064, Carlsbad, Calif., USA, or SIGMA L1518, for example). The cerebral cortex was collected from the isolated brain under a stereoscopic microscope. The cerebral cortex fragments collected were enzymatically treated in an enzyme solution containing 0.25% trypsin (Invitrogen Corp. Cat #15050-065, Carlsbad, Calif., USA) and 0.01% DNase (Sigma D5025, St. Louis, Mo., USA) at 37° C. for 30 minutes to disperse the cells. Here, the enzymatic reaction was stopped by adding inactivated horse serum to the solution. The enzymatically treated solution was centrifuged at 1,500 rpm for five minutes to remove the supernatant. 5 to 10 ml of a medium was added to the resulting cell mass. Neurobasal medium (Invitrogen Corp. Cat #21103-049, Carlsbad, Calif., USA) supplemented with 2% B27 supplement (Invitrogen Corp. Cat #17504-044, Carlsbad, Calif., USA), 25 μM 2-mercaptoethanol (2-ME, WAKO Cat #139-06861, Osaka, Japan), 0.5 mM L-glutamine (Invitrogen Corp. Cat #25030-081, Carlsbad, Calif., USA), and Antibiotics-Antimycotics (Invitrogen Corp. Cat #15240-062, Carlsbad, Calif., USA) was used as the medium (Neurobasal/B27/2-ME). However, the above Neurobasal medium not supplemented with 2-ME (Neurobasal/B27) was used for the assay. The cells were redispersed by mild pipetting of the cell mass to which the medium was added. The cell dispersion was filtered through a 40-μm nylon mesh (Cell Strainer, Cat #35-2340, Becton Dickinson Labware, Franklin Lakes, N.J., USA) to remove the remaining cell mass, and thus a neuronal cell suspension was obtained. The neuronal cell suspension was diluted with the medium and then plated in a volume of 100 μl/well at an initial cell density of 5×10^5 cells/cm^2 in a 96-well polystyrene culture plate pre-coated with poly-L or D-lysine (Falcon Cat #35-3075, Becton Dickinson Labware, Franklin Lakes, N.J., USA coated with poly-L-lysine using the method shown below, or BIOCOAT™ cell environments Poly-D-lysine cell ware 96-well plate, Cat #35-6461, Becton Dickinson Labware, Franklin Lakes, N.J., USA). Poly-L-lysine coating was carried out as follows. 100 μg/ml of a poly-L-lysine (SIGMA P2636, St. Louis, Mo., USA) solution was aseptically prepared with a 0.15 M borate buffer (pH 8.5). 100 μl/well of the solution was added to the 96-well polystyrene culture plate and incubated at room temperature for one or more hours or at 4° C. overnight or longer. The coated 96-well polystyrene culture plate was washed with sterile water four or more times, and then dried or rinsed with, for example, sterile PBS or medium, and used for cell plating. The plated cells were cultured in the culture plate at 37° C. in 5% CO2-95% air for one day. Then, the total amount of the medium was replaced with a fresh Neurobasal™/B27/2-ME medium, and then the cells were cultured for further three days.
The drug was added to the culture plate on Day 4 of culture as follows. The total amount of the medium was removed from the wells, and 180 μl/well of Neurobasal medium not containing 2-ME and containing 2% B-27 (Neurobasal/B27) was added thereto. A solution of the test compound in dimethyl sulfoxide (hereinafter abbreviated as DMSO) was diluted with Neurobasal/B27 at 10-fold of the final concentration. 20 μl/well of the dilution was added to and sufficiently mixed with the medium. The final DMSO concentration was 1% or less. Only DMSO was added to the control group.
The cells were cultured for three days after addition of the compound, and the total amount of the medium was collected. […]
On the technique in general: In an ELISA, binding on a coated surface is turned into a signal by an enzyme label.
`COc1nc(/C=C/c2nc3n(n2)CCC[C@@H]3c2cccc(F)c2)ccc1-n1cnc(C)c1` (single isomer, unassigned) [Example 189, (−)-8-(3-fluorophenyl)-2-{(E)-2-[6-methoxy-5-(4-methyl-1H-imidazol-1-yl)pyridin-2-yl]vinyl}-5,6,7,8-tetrahydro[1,2,4]triazolo[1,5-a]pyridine]: the IC50 (in general, the concentration that inhibits the measured activity by half) was 43 nM.
Under `COc1nc(/C=C/c2nc3n(n2)CCC[C@H]3c2ccccc2Cl)ccc1-n1cnc(C)c1` (single isomer, unassigned) [Example 193, (−)-8-(2-chlorophenyl)-2-{(E)-2-[6-methoxy-5-(4-methyl-1H-imidazol-1-yl)pyridin-2-yl]vinyl}-5,6,7,8-tetrahydro-[1,2,4]triazolo[1,5-a]pyridine] stands 80 nM; under `COc1nc(/C=C/c2nc3n(n2)CCC[C@H]3c2ccccc2C(F)(F)F)ccc1-n1cnc(C)c1` (single isomer, unassigned) [Example 195], 17 nM.
Under `COc1nc(/C=C/c2nc3n(n2)CCC[C@H]3c2cccc3ccccc23)ccc1-n1cnc(C)c1` (single isomer, unassigned) [Example 199, (+)-2-{(E)-2-[6-methoxy-5-(4-methyl-1H-imidazol-1-yl)pyridin-2-yl]vinyl}-8-(naphthalen-1-yl)-5,6,7,8-tetrahydro-[1,2,4]triazolo[1,5-a]pyridine] stands 23 nM; under `COc1nc(/C=C/c2nc3n(n2)CCC[C@H]3c2ccccc2)ccc1-n1cnc(C)c1` (single isomer, unassigned) [Example 207, (−)-2-{(E)-2-[6-methoxy-5-(4-methyl-1H-imidazol-1-yl)pyridin-2-yl]vinyl}-8-phenyl-5,6,7,8-tetrahydro-[1,2,4]triazolo[1,5-a]pyridine], 28 nM.
On to `COc1cc(/C=C/c2nc3n(n2)CCCC3c2ccc(F)cc2)cnc1-n1cnc(C)c1` (single isomer, unassigned) [Example 212, (−)-8-(4-fluorophenyl)-2-{(E)-2-[5-methoxy-6-(4-methyl-1H-imidazol-1-yl)pyridin-3-yl]vinyl}-5,6,7,8-tetrahydro-[1,2,4]triazolo[1,5-a]pyridine], for which the IC50 was determined as 100 nM.
The value for `COc1cc(/C=C/c2nc3n(n2)CCCC3c2ccc(F)c(F)c2)cnc1-n1cnc(C)c1` (single isomer, unassigned) [Example 218, (−)-8-(3,4-difluorophenyl)-2-{(E)-2-[5-methoxy-6-(4-methyl-1H-imidazol-1-yl)pyridin-3-yl]vinyl}-5,6,7,8-tetrahydro-[1,2,4]triazolo[1,5-a]pyridine] was 69 nM; that for `COc1cc(/C=C/c2nc3n(n2)CCC[C@@]3(C#N)c2cc(F)c(F)c(F)c2)cnc1-n1cnc(C)c1` (single isomer, unassigned) [Example 229, (−)-2-{(E)-2-[5-methoxy-6-(4-methyl-1H-imidazol-1-yl)pyridin-3-yl]vinyl}-8-(3,4,5-trifluorophenyl)-5,6,7,8-tetrahydro-[1,2,4]triazolo[1,5-a]pyridine-8-carbonitrile] was 169 nM; that for `COc1nc(/C=C/c2nc3n(n2)CC[C@@H]3c2cc(F)c(F)c(F)c2)ccc1-n1cnc(C)c1` (single isomer, unassigned) [Example 254, (−)-2-{(E)-2-[6-methoxy-5-(4-methyl-1H-imidazol-1-yl)pyridin-2-yl]vinyl}-7-(3,4,5-trifluorophenyl)-6,7-dihydro-5H-pyrrolo[1,2-b][1,2,4]triazole] was 50 nM.
Under `COc1nc(/C=C/c2nc3n(n2)CCOC3c2ccc(Cl)cc2)ccc1-n1cnc(C)c1` (single isomer, unassigned) [Example 262, (−)-8-(4-chlorophenyl)-2-{(E)-2-[6-methoxy-5-(4-methyl-1H-imidazol-1-yl)pyridin-2-yl]vinyl}-5,6-dihydro-8H-[1,2,4]triazolo[5,1-c][1,4]oxazine] stands 74 nM; under `COc1nc(/C=C/c2nc3n(n2)CCC[C@H]3c2cccc(F)c2F)ccc1-n1cnc(C)c1` (single isomer, unassigned) [Example 280, (−)-8-(2,3-difluorophenyl)-2-{(E)-2-[6-methoxy-5-(4-methyl-1H-imidazol-1-yl)pyridin-2-yl]vinyl}-5,6,7,8-tetrahydro-[1,2,4]triazolo[1,5-a]pyridine], 18 nM.
As for `COc1nc(/C=C/c2nc3n(n2)CCC[C@H]3c2cccc(C)c2F)ccc1-n1cnc(C)c1` (single isomer, unassigned) [Example 282, (−)-8-(2-fluoro-3-methylphenyl)-2-{(E)-2-[6-methoxy-5-(4-methyl-1H-imidazol-1-yl)pyridin-2-yl]vinyl}-5,6,7,8-tetrahydro-[1,2,4]triazolo[1,5-a]pyridine], the IC50 was 29 nM.
Under `COc1cc(/C=C/c2nc3n(n2)CCCC3(O)c2cc(F)cc(F)c2)ccc1-n1cnc(C)c1` (single isomer, unassigned; (+)) [Example 80, (+)-8-(3,5-difluorophenyl)-2-{(E)-2-[3-methoxy-4-(4-methyl-1H-imidazol-1-yl)phenyl]vinyl}-5,6,7,8-tetrahydro[1,2,4]triazolo[1,5-a]pyridin-8-ol] stands 29 nM.
Under `COc1cc(/C=C/c2nc3n(n2)CCCC3c2cccc(F)c2)ccc1-n1cnc(C)c1` (single isomer, unassigned; (-)) [Example 2, (−)-8-(3-fluorophenyl)-2-{(E)-2-[3-methoxy-4-(4-methyl-1H-imidazol-1-yl)phenyl]vinyl}-5,6,7,8-tetrahydro[1,2,4]triazolo[1,5-a]pyridine] stands 28 nM; under `CCCCC(=O)c1ccc(C2CCCn3nc(/C=C/c4ccc(-n5cnc(C)c5)c(OC)c4)nc32)cc1` (single isomer, unassigned; (-)) [Example 3, (−)-1-{4-{2-{(E)-2-[3-methoxy-4-(4-methyl-1H-imidazol-1-yl)phenyl]vinyl}-5,6,7,8-tetrahydro[1,2,4]triazolo[1,5-a]pyridin-8-yl}phenyl}pentan-1-one], 48 nM.
The value for `COc1cc(/C=C/c2nc3n(n2)CCCC3c2ccc(C(C)C)cc2)ccc1-n1cnc(C)c1` (single isomer, unassigned; (-)) [Example 5, (−)-8-(4-isopropylphenyl)-2-{(E)-2-[3-methoxy-4-(4-methyl-1H-imidazol-1-yl)phenyl]vinyl}-5,6,7,8-tetrahydro[1,2,4]triazolo[1,5-a]pyridine] was 21 nM; that for `COc1cc(/C=C/c2nc3n(n2)CCCC3c2ccc(SC)cc2)ccc1-n1cnc(C)c1` (single isomer, unassigned; (-)) [Example 7, (−)-2-{(E)-2-[3-methoxy-4-(4-methyl-1H-imidazol-1-yl)phenyl]vinyl}-8-(4-methylsulfanylphenyl)-5,6,7,8-tetrahydro-[1,2,4]triazolo[1,5-a]pyridine] was 30 nM; that for `COc1cc(/C=C/c2nc3n(n2)CCCC3c2cccs2)ccc1-n1cnc(C)c1` (single isomer, unassigned; (-)) [Example 10, (−)-2-{(E)-2-[3-methoxy-4-(4-methyl-1H-imidazol-1-yl)phenyl]vinyl}-8-thiophen-2-yl-5,6,7,8-tetrahydro[1,2,4]triazolo[1,5-a]pyridine] was 33 nM.
